What was measured:
Rattus norvegicus [1] = test: Effect on sleep-awake cycle in EEG/EMG rat model assessed as wake promotion time at 10 mg/kg, ip after 4 hrs relative to control; format: functional; settings: route intraperitoneal
[2] = Half life in human liver microsomes; format: ADME, Microsome
[3] = Drug uptake in rat brain at 5 mg/kg, po after 6 hrs; format: ADME, organism-based; design: dose 5 mg/kg, route oral; settings: read-out: Drug uptake
Cytochrome P450 2D6 = Cytochrome P450 2D6 (Homo sapiens, UniProt P10635); test: Inhibition of CYP2D6; format: ADME
Chain of Cytochrome P450 2D6 (P10635 whole entry): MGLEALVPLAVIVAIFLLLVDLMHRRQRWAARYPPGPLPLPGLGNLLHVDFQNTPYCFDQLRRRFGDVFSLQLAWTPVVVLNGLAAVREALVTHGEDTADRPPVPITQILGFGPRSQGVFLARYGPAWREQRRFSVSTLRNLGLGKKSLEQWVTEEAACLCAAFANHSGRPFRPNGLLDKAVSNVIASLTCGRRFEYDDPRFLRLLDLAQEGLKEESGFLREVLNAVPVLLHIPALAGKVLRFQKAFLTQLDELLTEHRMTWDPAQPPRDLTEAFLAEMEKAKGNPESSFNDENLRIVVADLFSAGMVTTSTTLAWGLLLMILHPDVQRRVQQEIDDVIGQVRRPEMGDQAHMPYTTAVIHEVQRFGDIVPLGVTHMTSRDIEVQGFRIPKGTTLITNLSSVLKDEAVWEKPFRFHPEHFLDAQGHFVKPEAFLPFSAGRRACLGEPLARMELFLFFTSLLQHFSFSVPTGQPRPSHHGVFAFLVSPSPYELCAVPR

Rattus norvegicus [4] = test: Effect on sleep-awake cycle in ip dosed EEG/EMG rat model assessed as wake promotion after 4 hrs relative to control; format: functional, organism-based
Histamine H3 receptor [5] = molecular target: Histamine H3 receptor (Rattus norvegicus, UniProt Q9QYN8); test: Displacement of [3H]NAMH from rat histamine H3 receptor expressed in CHO cells; format: cell-based
Chain of Histamine H3 receptor (Rattus norvegicus, UniProt Q9QYN8) (Q9QYN8 whole entry): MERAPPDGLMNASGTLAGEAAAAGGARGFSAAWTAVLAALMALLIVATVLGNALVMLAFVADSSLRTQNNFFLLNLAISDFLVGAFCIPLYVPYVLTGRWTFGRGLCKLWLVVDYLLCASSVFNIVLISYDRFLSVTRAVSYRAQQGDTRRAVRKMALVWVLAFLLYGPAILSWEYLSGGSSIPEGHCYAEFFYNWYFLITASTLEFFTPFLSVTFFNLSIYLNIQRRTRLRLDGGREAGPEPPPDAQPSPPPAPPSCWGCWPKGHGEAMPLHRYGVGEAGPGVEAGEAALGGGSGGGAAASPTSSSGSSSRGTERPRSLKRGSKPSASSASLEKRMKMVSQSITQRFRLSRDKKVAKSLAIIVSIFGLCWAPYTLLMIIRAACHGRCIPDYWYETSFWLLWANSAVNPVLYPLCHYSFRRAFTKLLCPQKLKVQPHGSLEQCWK

Cytochrome P450 1A2 = molecular target: T1, Cytochrome P450 1A2 (Homo sapiens, UniProt P05177); test: Inhibition of CYP1A2; format: ADME
T1 sequence (P05177 whole entry): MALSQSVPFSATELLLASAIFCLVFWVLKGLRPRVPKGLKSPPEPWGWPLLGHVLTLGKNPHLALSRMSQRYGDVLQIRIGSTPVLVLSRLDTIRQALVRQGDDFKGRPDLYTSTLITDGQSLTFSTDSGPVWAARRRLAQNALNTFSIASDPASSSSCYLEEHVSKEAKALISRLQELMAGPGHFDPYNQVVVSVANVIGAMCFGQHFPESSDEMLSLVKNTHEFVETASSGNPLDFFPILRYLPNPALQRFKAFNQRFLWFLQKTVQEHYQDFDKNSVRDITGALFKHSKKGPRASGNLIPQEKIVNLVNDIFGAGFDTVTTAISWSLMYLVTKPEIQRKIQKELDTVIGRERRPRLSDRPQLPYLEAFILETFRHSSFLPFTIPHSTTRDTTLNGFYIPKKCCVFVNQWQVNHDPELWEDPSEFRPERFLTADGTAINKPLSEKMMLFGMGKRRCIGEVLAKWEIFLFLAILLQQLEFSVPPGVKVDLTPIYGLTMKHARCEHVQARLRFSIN

Histamine H3 receptor [6] = molecular target: T2, Histamine H3 receptor (Homo sapiens, UniProt Q9Y5N1); test: Antagonist activity at human histamine H3 receptor by [35S]GTPgammaS binding assay; format: functional
T2 sequence (Q9Y5N1 whole entry): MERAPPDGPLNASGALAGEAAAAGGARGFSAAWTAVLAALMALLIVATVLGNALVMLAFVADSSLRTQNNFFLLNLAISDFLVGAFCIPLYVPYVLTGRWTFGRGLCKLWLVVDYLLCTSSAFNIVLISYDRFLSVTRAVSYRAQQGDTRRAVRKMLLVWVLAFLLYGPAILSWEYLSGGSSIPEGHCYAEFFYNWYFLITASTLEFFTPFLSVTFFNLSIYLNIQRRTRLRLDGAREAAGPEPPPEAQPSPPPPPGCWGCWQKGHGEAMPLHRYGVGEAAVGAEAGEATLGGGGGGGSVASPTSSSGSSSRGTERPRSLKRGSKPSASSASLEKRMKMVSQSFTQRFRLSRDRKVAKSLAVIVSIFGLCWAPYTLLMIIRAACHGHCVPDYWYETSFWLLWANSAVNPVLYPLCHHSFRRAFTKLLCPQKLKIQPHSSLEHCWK

Histamine H3 receptor [7] = molecular target: T2, Histamine H3 receptor; test: Displacement of [3H]NAMH from human histamine H3 receptor expressed in CHO cells; format: cell-based
Histamine H3 receptor [8] = molecular target: T2, Histamine H3 receptor; test: Inverse agonist activity at human histamine H3 receptor by [35S]GTPgammaS binding assay; format: functional
[9] = Half life in rat liver microsomes; format: ADME, Microsome
[10] = Half life in dog liver microsomes; format: ADME, Canis lupus familiaris, Microsome
Cytochrome P450 2C9 = Cytochrome P450 2C9 (Homo sapiens, UniProt P11712); test: Inhibition of CYP2C9; format: ADME
Chain of Cytochrome P450 2C9 (P11712 whole entry): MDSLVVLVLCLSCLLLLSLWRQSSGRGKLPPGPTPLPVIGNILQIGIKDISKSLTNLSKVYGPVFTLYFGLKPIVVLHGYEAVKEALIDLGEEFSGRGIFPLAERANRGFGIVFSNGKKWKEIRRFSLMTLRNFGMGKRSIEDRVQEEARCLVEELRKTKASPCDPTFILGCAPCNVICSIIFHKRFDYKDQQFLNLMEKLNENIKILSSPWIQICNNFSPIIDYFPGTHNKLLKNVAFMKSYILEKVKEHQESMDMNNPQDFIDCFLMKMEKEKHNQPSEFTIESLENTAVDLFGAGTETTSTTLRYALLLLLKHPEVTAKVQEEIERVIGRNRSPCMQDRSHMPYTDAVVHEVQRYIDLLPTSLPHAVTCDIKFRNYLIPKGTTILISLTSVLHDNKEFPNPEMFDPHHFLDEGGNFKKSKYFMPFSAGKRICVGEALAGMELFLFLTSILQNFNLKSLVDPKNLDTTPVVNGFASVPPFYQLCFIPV

[11] = Half life in monkey liver microsomes; format: ADME, Macaca mulatta, Microsome; settings: rhesus monkey
Cytochrome P450 2C19 = Cytochrome P450 2C19 (Homo sapiens, UniProt P33261); test: Inhibition of CYP2C19; format: ADME
Chain of Cytochrome P450 2C19 (P33261 whole entry): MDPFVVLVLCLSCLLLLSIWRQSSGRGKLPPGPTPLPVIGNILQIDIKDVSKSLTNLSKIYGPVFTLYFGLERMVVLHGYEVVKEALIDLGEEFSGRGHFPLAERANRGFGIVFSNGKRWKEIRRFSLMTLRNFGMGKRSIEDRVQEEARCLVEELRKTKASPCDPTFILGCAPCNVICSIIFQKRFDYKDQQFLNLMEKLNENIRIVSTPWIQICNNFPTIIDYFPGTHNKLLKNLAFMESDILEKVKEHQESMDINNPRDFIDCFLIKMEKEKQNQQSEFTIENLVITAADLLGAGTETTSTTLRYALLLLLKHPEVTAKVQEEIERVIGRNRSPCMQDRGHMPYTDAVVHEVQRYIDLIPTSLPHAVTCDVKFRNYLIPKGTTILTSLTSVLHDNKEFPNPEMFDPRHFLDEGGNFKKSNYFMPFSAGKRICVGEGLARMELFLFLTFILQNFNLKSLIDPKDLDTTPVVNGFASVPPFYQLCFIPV

[12] = Half life in rat at 1 mg/kg, iv; format: ADME, organism-based; design: dose 1 mg/kg, route intravenous; settings: in vivo
[13] = Half life in mouse liver microsomes; format: ADME, Microsome
Cytochrome P450 3A4 = Cytochrome P450 3A4 (Homo sapiens, UniProt P08684); test: Inhibition of CYP3A4; format: ADME
Chain of Cytochrome P450 3A4 (P08684 whole entry): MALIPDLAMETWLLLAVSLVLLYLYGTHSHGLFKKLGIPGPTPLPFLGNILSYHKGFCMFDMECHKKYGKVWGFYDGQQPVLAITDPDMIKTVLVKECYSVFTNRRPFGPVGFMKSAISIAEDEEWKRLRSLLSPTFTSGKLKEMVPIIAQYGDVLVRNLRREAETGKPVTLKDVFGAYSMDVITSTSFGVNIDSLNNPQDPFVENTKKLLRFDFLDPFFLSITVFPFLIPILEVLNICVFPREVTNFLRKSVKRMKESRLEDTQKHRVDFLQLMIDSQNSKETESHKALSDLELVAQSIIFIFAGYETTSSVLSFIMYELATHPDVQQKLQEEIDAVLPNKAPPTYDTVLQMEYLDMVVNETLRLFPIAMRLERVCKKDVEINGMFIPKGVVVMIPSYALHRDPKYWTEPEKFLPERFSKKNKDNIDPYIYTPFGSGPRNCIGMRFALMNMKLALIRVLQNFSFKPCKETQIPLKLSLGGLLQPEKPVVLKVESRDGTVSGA

[14] = Plasma protein binding in rat; format: ADME, cell-free; settings: read-out: PPB (converted)
[15] = Apparent permeability of the compound in human Caco2 cells; format: ADME, cell-based; settings: Caco-2
Rattus norvegicus [16] = test: Effect on sleep-awake cycle in EEG/EMG rat model assessed as wake promotion at 10 mg/kg, ip after 17 hrs relative to control; format: functional; settings: route intraperitoneal
[17] = Oral bioavailability in rat at 5 mg/kg; format: ADME, organism-based; settings: in vivo
[18] = Cmax in rat at 5 mg/kg, po; format: ADME, organism-based; design: dose 5 mg/kg, route oral; settings: in vivo
Rattus norvegicus [19] = test: Effect on sleep-awake cycle in EEG/EMG rat model assessed as wake promotion time at 10 mg/kg, ip after 3 hrs relative to control; format: functional; settings: route intraperitoneal
Rattus norvegicus [20] = test: Effect on sleep-awake cycle in EEG/EMG rat model assessed as wake promotion at 1 mg/kg, ip after 4 hrs (reference value: 80 +/- 5 mins); format: functional; settings: route intraperitoneal
Rattus norvegicus [21] = test: Effect on sleep-awake cycle in EEG/EMG rat model assessed as wake promotion at 3 mg/kg, ip after 4 hrs (reference value: 80 +/- 5 mins); format: functional; settings: route intraperitoneal
[22] = Clearance in rat at 1 mg/kg, iv; format: ADME, organism-based; design: dose 1 mg/kg, route intravenous; settings: in vivo
Rattus norvegicus [23] = test: Effect on sleep-awake cycle in EEG/EMG rat model assessed as wake promotion at 10 mg/kg, ip after 5 hrs relative to control; format: functional; settings: route intraperitoneal
[24] = molecular target: Histamine H2 receptor (Homo sapiens) (UniProt P25021); test: Inhibition human histamine H2 receptor at 10 uM
Chain of Histamine H2 receptor (Homo sapiens) (P25021 whole entry): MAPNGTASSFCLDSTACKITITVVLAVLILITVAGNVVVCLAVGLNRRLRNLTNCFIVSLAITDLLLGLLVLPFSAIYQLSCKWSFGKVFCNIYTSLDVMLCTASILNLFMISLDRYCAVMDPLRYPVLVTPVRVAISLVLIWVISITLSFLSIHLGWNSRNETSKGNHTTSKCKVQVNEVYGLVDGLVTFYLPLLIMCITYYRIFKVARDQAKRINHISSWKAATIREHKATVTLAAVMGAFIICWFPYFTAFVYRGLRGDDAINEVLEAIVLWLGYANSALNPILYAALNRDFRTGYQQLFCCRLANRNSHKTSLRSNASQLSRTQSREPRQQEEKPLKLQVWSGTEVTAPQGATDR

Rattus norvegicus [25] = test: Effect on sleep-awake cycle in EEG/EMG rat model assessed as wake promotion at 10 mg/kg, ip after 4 hrs (reference value: 80 +/- 5 mins); format: functional; settings: route intraperitoneal
[26] = Plasma protein binding in dog; format: ADME, cell-free, Canis lupus familiaris; settings: read-out: PPB (converted)
[27] = Solubility of the compound in water at pH 7.4; format: physicochemical
[28] = Volume of distribution in rat at 1 mg/kg, iv; format: ADME, organism-based; design: dose 1 mg/kg, route intravenous; settings: in vivo
[29] = molecular target: Histamine H1 receptor (Homo sapiens) (UniProt P35367); test: Inhibition human histamine H1 receptor at 10 uM
Chain of Histamine H1 receptor (Homo sapiens) (P35367 whole entry): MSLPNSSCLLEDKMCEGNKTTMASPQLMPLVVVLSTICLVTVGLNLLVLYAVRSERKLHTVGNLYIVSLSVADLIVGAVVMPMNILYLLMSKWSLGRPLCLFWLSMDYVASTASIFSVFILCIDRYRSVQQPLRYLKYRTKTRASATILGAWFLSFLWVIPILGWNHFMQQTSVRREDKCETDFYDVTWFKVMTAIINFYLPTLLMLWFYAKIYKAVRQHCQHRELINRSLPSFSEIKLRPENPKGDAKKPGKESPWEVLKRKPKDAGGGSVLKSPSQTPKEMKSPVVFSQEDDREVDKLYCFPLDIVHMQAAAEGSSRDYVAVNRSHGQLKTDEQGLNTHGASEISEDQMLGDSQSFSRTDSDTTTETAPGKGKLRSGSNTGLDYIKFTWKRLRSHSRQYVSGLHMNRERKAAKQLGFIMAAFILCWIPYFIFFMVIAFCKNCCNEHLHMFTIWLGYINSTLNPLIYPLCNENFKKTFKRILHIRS

[30] = AUC in rat at 5 mg/kg, po; format: ADME, organism-based, Plasma; design: dose 5 mg/kg, route oral; settings: plasma
[31] = molecular target: Histamine H4 receptor (Homo sapiens) (UniProt Q9H3N8); test: Inhibition human histamine H4 receptor at 10 uM
Chain of Histamine H4 receptor (Homo sapiens) (Q9H3N8 whole entry): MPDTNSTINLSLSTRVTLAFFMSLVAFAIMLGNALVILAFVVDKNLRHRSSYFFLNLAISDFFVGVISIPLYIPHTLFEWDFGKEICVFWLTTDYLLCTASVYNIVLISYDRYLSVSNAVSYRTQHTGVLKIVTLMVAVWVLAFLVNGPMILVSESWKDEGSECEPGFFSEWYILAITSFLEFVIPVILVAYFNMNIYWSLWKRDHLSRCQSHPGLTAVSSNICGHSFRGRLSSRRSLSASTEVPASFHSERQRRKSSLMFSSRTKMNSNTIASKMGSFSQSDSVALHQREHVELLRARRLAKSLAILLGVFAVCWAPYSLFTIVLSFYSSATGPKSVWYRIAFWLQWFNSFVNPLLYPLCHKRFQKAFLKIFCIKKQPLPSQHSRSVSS

[32] = Solubility of the compound in water at pH 2; format: physicochemical
Rattus norvegicus [33] = test: Inhibition of RAMH-induced dipsogenia in po dosed rat; format: functional
[34] = Ratio of drug level in brain to plasma in rat at 10 mg/kg, ip after 6 hrs; format: ADME, organism-based; design: dose 10 mg/kg, route intraperitoneal; settings: brain/plasma, read-out: BPR
[35] = Plasma protein binding in human; format: ADME, cell-free; settings: read-out: PPB (converted)

C[C@@H]1CCCN1CCCOc1ccc(C2=NNC(=O)C(C)(C)C2)cc1
Activity (Rattus norvegicus [1]): 150%
half-life [2]: > 40 min
concentration at 6 h [3]: 900 nM
IC50 (Cytochrome P450 2D6): > 30000 nM
Activity (Rattus norvegicus [4]): Dose-dependent effect
Ki (Histamine H3 receptor [5]): 13 nM
IC50 (Cytochrome P450 1A2): > 30000 nM
Kb (Histamine H3 receptor [6]): 0.18 nM
Ki (Histamine H3 receptor [7]): 4.3 nM
EC50 (Histamine H3 receptor [8]): 0.73 nM
half-life [9]: > 40 min
half-life [10]: > 40 min
IC50 (Cytochrome P450 2C9): > 30000 nM
half-life [11]: > 40 min
IC50 (Cytochrome P450 2C19): > 30000 nM
half-life [12]: 114 min
half-life [13]: > 40 min
IC50 (Cytochrome P450 3A4): > 30000 nM
fraction unbound [14]: 0.72
Papp [15]: 14 ×10⁻⁶ cm/s
Activity (Rattus norvegicus [16]): 203 min
bioavailability [17]: 38%
Cmax [18]: 189 ng/mL
Activity (Rattus norvegicus [19]): 90%
Activity (Rattus norvegicus [20]): 119 min
Activity (Rattus norvegicus [21]): 127 min
clearance [22]: 27 mL/min/kg
Activity (Rattus norvegicus [23]): 130 min
inhibition [24]: < 30%
Activity (Rattus norvegicus [25]): 201 min
fraction unbound [26]: 0.84
solubility [27]: > 2000 µg/mL
Vd [28]: 4.7 L/kg
inhibition [29]: < 30%
AUC [30]: 837 ng·h/mL
inhibition [31]: < 30%
solubility [32]: > 2000 µg/mL
ED50 (Rattus norvegicus [33]): 0.16 mg/kg
inhibition (Rattus norvegicus [33]): Dose-dependent effect
Kp at 6 h [34]: 2.4
fraction unbound [35]: 0.74

Source: ChEMBL document CHEMBL1932917, “4,5-dihydropyridazin-3-one derivatives as histamine H₃ receptor inverse agonists” (Bioorg Med Chem Lett, 2012)
